Columns and labels:
Experiment in all cases: relative viability (nuclei count vs DMSO), 5 days (fraction); higher = more cells survive
[1] = compound: CC1=CC(=NN1)NC2=CC(=NC(=N2)/C=C/C3=CC=CC=C3)N4CCN(CC4)C + CC(=O)c1c(C)c2cnc(Nc3ccc(N4CCNCC4)cn3)nc2n(C2CCCC2)c1=O [Palbociclib] (partner 0.5 µM)
Outline: (§1)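 One day after seeding in 1536-well plates, lung cancer cell lines were dosed by pin tool. Dosing was either single-drug or a fixed anchor-drug dose plus five library-drug doses (not always all listed) in √10 steps. After 5 days, nuclei were stained in one fix-and-stain step and counted on 4× images, and relative viability is the nuclei count of treated wells over that of vehicle wells, given as the median of duplicate plates.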

[2] = compound: CC1=CC(=NN1)NC2=CC(=NC(=N2)/C=C/C3=CC=CC=C3)N4CCN(CC4)C + CC(=O)Nc1cccc(-n2c(=O)n(C3CC3)c(=O)c3c(Nc4ccc(I)cc4F)n(C)c(=O)c(C)c32)c1 [Trametinib] (partner 0.02 µM)
Outline: as §1

[3] = compound: CC1=CC(=NN1)NC2=CC(=NC(=N2)/C=C/C3=CC=CC=C3)N4CCN(CC4)C + O=C(c1cc(Cc2n[nH]c(=O)c3ccccc23)ccc1F)N1CCN(C(=O)C2CC2)CC1 [Olaparib] (partner 8 µM)
Outline: as §1

Bortezomib + Decitabine = compound: CC(C)C[C@H](NC(=O)[C@H](Cc1ccccc1)NC(=O)c1cnccn1)B(O)O [Bortezomib] + Nc1ncn([C@H]2C[C@H](O)[C@@H](CO)O2)c(=O)n1 [Decitabine] (partner 2 µM)
Outline: as §1

Cell Line	relative viability ([1]; first compound 0.08 µM)	relative viability ([1]; first compound 0.253 µM)	relative viability ([1]; first compound 0.8 µM)	relative viability ([1]; first compound 2.53 µM)	relative viability ([1]; first compound 8 µM)	relative viability ([2]; first compound 0.08 µM)	relative viability ([2]; first compound 0.253 µM)	relative viability ([2]; first compound 0.8 µM)	relative viability ([2]; first compound 2.53 µM)	relative viability ([2]; first compound 8 µM)	relative viability ([3]; first compound 0.08 µM)	relative viability ([3]; first compound 0.253 µM)	relative viability ([3]; first compound 0.8 µM)	relative viability ([3]; first compound 2.53 µM)	relative viability ([3]; first compound 8 µM)	relative viability (Bortezomib + Decitabine; first compound 0.0002 µM)	relative viability (Bortezomib + Decitabine; first compound 0.000632 µM)	relative viability (Bortezomib + Decitabine; first compound 0.002 µM)	relative viability (Bortezomib + Decitabine; first compound 0.006325 µM)	relative viability (Bortezomib + Decitabine; first compound 0.02 µM)
PC-3 [JPC-3]	0.537	0.587	0.54	0.529	0.491	0.726	0.744	0.701	0.706	0.417	1.16	1.31	1.22	1.09	0.615	0.815	0.84	0.428	0.301	0.237
HCC-44	0.984	0.946	0.952	1.01	0.644	1.04	1.06	1.04	1.09	0.677	0.974	1.01	0.956	0.965	0.759	0.965	0.965	0.961	0.953	0.258
NCI-H2405	0.553	0.555	0.521	0.411	0.174	0.63	0.397	0.685	0.519	0.147	0.842	0.937	0.93	0.753	0.183	0.716	0.692	0.545	0.212	0.181
LXF-289	0.632	0.63	0.602	0.568	0.304	0.637	0.623	0.637	0.592	0.442	1.05	1.04	0.87	0.411	0.055	0.364	0.384	0.394	0.196	0.112
LOU-NH91	0.55	0.516	0.5	0.56	0.407	0.767	0.823	0.754	0.783	0.439	0.871	0.958	0.926	0.875	0.385	0.805	0.82	0.41	0.373	0.322
A549											0.292	0.529	0.287	0.156	0.0245	0.294	0.205	0.339	0.201	0.248
H3255	0.322	0.319	0.345	0.313	0.267	0.636	0.45	0.665	0.608	0.271	0.553	0.568	0.599	0.575	0.326	0.587	0.583	0.316	0.192	0.204
NCI-H1395	0.557	0.635	0.628	0.433	0.285	0.964	1.03	0.975	0.659	0.263	0.472	0.462	0.445	0.355	0.278	0.774	0.702	0.431	0.287	0.297
LC-2-ad	0.552	0.488	0.413	0.298	0.18	0.873	0.89	0.868	0.463	0.196	0.692	0.687	0.704	0.471	0.164	0.73	0.81	0.931	0.516	0.225
NCI-H838	0.243	0.241	0.169	0.127	0.106	0.526	0.541	0.44	0.119	0.12	0.752	0.749	0.564	0.139	0.0822	0.473	0.467	0.459	0.184	0.138
Calu-6											0.577	0.558	0.469	0.289	0.0899					
SW 900	0.514	0.542	0.497	0.284	0.12	0.957	0.625	0.839	0.215	0.0981	0.863	0.89	0.805	0.298	0.107	0.347	0.423	0.227	0.206	0.284
LCLC-97TM1	0.246	0.201	0.201	0.168	0.0556	0.186	0.142	0.209	0.182	0.0966	0.258	0.565	0.323	0.214	0.0672	0.245	0.238	0.21	0.0935	0.0627
HCC-15	0.743	0.771	0.716	0.347	0.114	0.371	0.378	0.396	0.278	0.0994	0.748	0.611	0.718	0.298	0.113	0.626	0.619	0.598	0.111	0.114
CAL-12T	0.412	0.335	0.466	0.185	0.119	0.362	0.292	0.259	0.102	0.104	0.714	0.741	0.714	0.238	0.237					
NCI-H727	0.641	0.628	0.672	0.691	0.409	0.355	0.347	0.429	0.347	0.285	0.708	0.635	0.791	0.722	0.44	0.993	1.09	0.875	0.95	0.834
ABC-1	0.668	0.633	0.934	0.636	0.227						0.904	0.946	1.01	0.647	0.324	1.09	1	0.389	0.284	0.287
NCI-H2023	0.406	0.451	0.301	0.111	0.0652	0.522	0.649	0.449	0.0864	0.0663	0.464	0.586	0.384	0.0975	0.0526	0.216	0.236	0.245	0.122	0.0571
NCI-H358	0.12	0.144	0.133	0.0673	0.072	0.124	0.123	0.128	0.0733	0.0762	0.505	0.644	0.486	0.209	0.068	0.204	0.207	0.191	0.0949	0.0871

Cell Line	relative viability ([1]; first compound 0.08 µM)	relative viability ([1]; first compound 0.253 µM)	relative viability ([1]; first compound 0.8 µM)	relative viability ([1]; first compound 2.53 µM)	relative viability ([1]; first compound 8 µM)	relative viability ([2]; first compound 0.08 µM)	relative viability ([2]; first compound 0.253 µM)	relative viability ([2]; first compound 0.8 µM)	relative viability ([2]; first compound 2.53 µM)	relative viability ([2]; first compound 8 µM)	relative viability ([3]; first compound 0.08 µM)	relative viability ([3]; first compound 0.253 µM)	relative viability ([3]; first compound 0.8 µM)	relative viability ([3]; first compound 2.53 µM)	relative viability ([3]; first compound 8 µM)	relative viability (Bortezomib + Decitabine; first compound 0.0002 µM)	relative viability (Bortezomib + Decitabine; first compound 0.000632 µM)	relative viability (Bortezomib + Decitabine; first compound 0.002 µM)	relative viability (Bortezomib + Decitabine; first compound 0.006325 µM)	relative viability (Bortezomib + Decitabine; first compound 0.02 µM)
SW 1573	0.378	0.442	0.301	0.131	0.0733	0.542	0.636	0.521	0.12	0.0764	0.442	0.413	0.377	0.111	0.0633	0.366	0.573	0.229	0.0617	0.0363
NCI-H1993	0.639	0.397	0.711	0.49	0.267	0.506	0.541	0.408	0.616	0.509	1.01	1.24	0.894	0.829	0.419	0.634	0.717	0.622	0.319	0.374
NCI-H661	0.4	0.41	0.404	0.27	0.269	0.593	0.478	0.628	0.256	0.242	0.658	0.826	0.752	0.424	0.275	0.553	0.553	0.529	0.395	0.204
UMC-11	0.327	0.342	0.323	0.232	0.232	0.682	0.681	0.503	0.162	0.101	0.361	0.39	0.395	0.0656	0.167	0.628	0.713	0.483	0.326	0.203
NCI-H520	0.209	0.214	0.184	0.142	0.113	0.758	0.531	0.543	0.12	0.111	0.3	0.332	0.307	0.152	0.104	0.43	0.549	0.424	0.174	0.155
ChaGo-K-1	0.756	0.952	0.933	0.378	0.17	0.937	0.887	0.807	0.753	0.19	0.371	0.42	0.38	0.234	0.148	0.49	0.444	0.561	0.444	0.161
NCI-H2085	0.473	0.463	0.459	0.345	0.266	0.594	0.48	0.535	0.261	0.214	0.783	0.792	0.755	0.429	0.28	0.588	0.544	0.593	0.298	0.246
NCI-H1651	0.525	0.536	0.496	0.462	0.266	0.801	0.83	0.832	0.758	0.395	0.177	0.189	0.176	0.166	0.135	0.659	0.732	0.619	0.665	0.172
RERF-LC-KJ	1.03	1.15	0.92	0.647	0.336	0.905	0.956	0.928	0.605	0.295	0.982	0.88	0.882	0.243	0.201	0.663	0.707	0.531	0.226	0.219
NCI-H1755	0.413	0.433	0.466	0.382	0.325	0.78	0.728	0.716	0.66	0.389	0.877	0.89	0.856	0.514	0.253	0.699	0.716	0.734	0.452	0.237
NCI-H2170	0.401	0.396	0.387	0.31	0.144	0.932	0.916	0.91	0.671	0.355	0.512	0.65	0.577	0.263	0.102	0.462	0.465	0.444	0.377	0.126
NCI-H2126	0.336	0.341	0.32	0.306	0.243	0.57	0.534	0.555	0.516	0.346	0.865	0.91	0.908	0.801	0.518	0.603	0.597	0.535	0.552	0.197
NCI-H1703											0.355	0.392	0.167	0.168	0.0731					
NCI-H2228	0.64	0.727	0.518	0.0712	0.0545	0.518	0.22	0.637	0.106	0.0612	0.699	0.727	0.374	0.316	0.0565					
IA-LM											0.839	0.899	0.981	1.02	0.174					
EBC-1											0.631	0.753	0.7	0.46	0.114					
NCI-H1299											0.961	0.924	0.975	0.616	0.167					
NCI-H596						0.846	1.07	0.839	0.4	0.216	0.729	0.607	0.601	0.412	0.24	1.01	0.999	0.95	0.251	0.208

From the supplement of paper PMC10307832
